Consider 35 molecules from patent US8431596B2 (Cancer Research Technology Limited, priority 2007, dated 2013).

Several values for one entry are separate records, joined by “and”; a condition that tells them apart may be missing. Identical values can stand only once.

In the assay the target is T1, AXL (human catalytic domain) (Homo sapiens, UniProt P30530).
T1 construct: purchased Upstate Ltd. 14-512
T1 sequence (P30530 473-894): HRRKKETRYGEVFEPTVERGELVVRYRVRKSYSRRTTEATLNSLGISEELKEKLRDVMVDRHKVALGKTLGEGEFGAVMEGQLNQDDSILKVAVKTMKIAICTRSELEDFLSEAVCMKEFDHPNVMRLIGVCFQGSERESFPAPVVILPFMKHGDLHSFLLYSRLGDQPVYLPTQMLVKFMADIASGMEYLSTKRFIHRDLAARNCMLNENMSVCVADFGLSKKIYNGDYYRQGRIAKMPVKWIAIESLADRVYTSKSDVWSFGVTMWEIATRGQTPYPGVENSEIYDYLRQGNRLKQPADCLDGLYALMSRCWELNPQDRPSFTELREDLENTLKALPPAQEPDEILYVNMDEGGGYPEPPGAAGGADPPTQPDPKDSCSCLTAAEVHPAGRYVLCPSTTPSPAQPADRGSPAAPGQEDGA
Kind of assay: AXL (human catalytic domain) Enzyme Activity Assay (IMAP fluorescence polarisation). It counts as biochemical. As for the experimental part:
Biological Methods AXL (human catalytic domain) Enzyme Activity Assay Reagents
Kinase Assay Reaction Buffer: This consisted of 20 mM HEPES pH 7.0, 10 mM MgCl2, 1 mM DTT, […], 0.01% Triton X100 (v/v), and 0.01% BSA (w/v). All buffer components were purchased from Sigma-Aldrich at reagent grade or higher.
Kinase: Recombinant AXL isoform 1 (aa473-894 corresponding to Genbank Accession Number NP 068713) at 2 mg/mL (20.8 μM) was purchased from Upstate Ltd. (Product code 14-512, lot #28164U). The enzyme was stored at −80° C. and a working stock was prepared to a concentration of 30 nM by diluting 20.8 μM stock 1:693 in cold (4° C.) 1× Reaction Buffer. Final enzyme concentration in the assay was 15 nM.
Substrate: Fluorescein labelled CSK-tide 5FAM-[…]-NH2 was obtained from Molecular Devices (Product code R7270) and used at a working concentration of 200 nM by diluting the 100 μM stock 1:500 in 1× Reaction Buffer in a mix with the enzyme. A negative control (lacking enzyme) was prepared at the same concentrations. Final substrate concentration in the assay was 100 nM.
ATP: Supplied by Sigma (product code A-7699). A 100 mM ATP stock was prepared in […] and used at a working concentration of 375 μM by diluting the 100 mM stock 1:266.6 in Reaction Buffer. Final ATP concentration in the assay was 150 μM; this concentration represents the KM.ATP for this enzyme calculated in this assay.
IMAP Reagents: IMAP screening express kit was obtained from Molecular Devices (product code R8127). The binding reagent was gently re-suspended before diluting by 1:1000 in buffer (Binding Buffer is supplied as a 5× stock and so was diluted with water prior to use—this assay used 40% buffer A and 60% buffer B) and then vortexed before addition to wells. The binding reagent was used at a final dilution of 1:1333.
1 μL samples of test compounds in 10% DMSO/water were added to “test” wells by dry-spotting using a Matrix Platemate Plus. 5 μL Kinase/Substrate in Reaction Buffer were added to columns 1-22 of a Corning black low binding 384 well #6754 (90 μL volume) microplate to give 12 nM and 100 nM reaction concentration respectively. 5 μL substrate in Reaction Buffer was added to columns 23 and 24 to give 100 nM reaction concentration. 4 μL ATP in Reaction Buffer was added to all wells to give 150 μM reaction concentration. The reaction mixture was then incubated at room temperature for 60 minutes. The incubation period was followed by the addition of 20 μL IMAP Binding Reagent in Binding Buffer to all wells. The IMAP reaction detection was further incubated at room temperature overnight. The FP on a Tecan Ultra Plate reader was recorded as a single read at Ex485 Em535.
Percentage inhibition was calculated based on activity of the test sample minus the average values in the blank wells relative to the average values measured in control wells minus the average values in the blank wells.
IC50 values were calculated from 10 point dose sigmoid ‘dose-response’ curves using XIfit software (IDBS Inc, USA). Data were fitted to a 4 parameter logistic model/sigmoidal dose response defined by the following equation:
[formula] where: • A=fit minimum (locked to 0); • B=fit maximum (locked to 100); • C=fit midpoint (pre-fit to 1); and • D=slope at linear portion of curve, hillslope (pre-fit to 0.1).
The value for C represents the IC50 of the test compound.

The mark [1] stands for this setting: first data set, recombinant AXL isoform 1 aa473-894, 150 μM ATP.
Setting [2] is: further data set (WW-001 through WW-169, XX-001 through XX-469, YY-001 through YY-016, ZZ-001 through ZZ-003), 150 μM ATP.

As a reminder, the IC50 is the midpoint of a concentration-inhibition curve.

`COc1ccc(-c2cccc3nc(Nc4ccc(OCCNCc5ccccc5)cc4)nn23)cc1`: the half-inhibitory concentration (IC50) by setting is: under setting [1], < 1000 nM and 114 nM; under setting [2], 1000 to 10000 nM.

In the case of `O=C(Nc1nc2cccc(-c3ccccc3)n2n1)C1CC1` [WW-001, Cyclopropanecarboxylic acid (5-phenyl-[1,2,4]triazolo[1,5-a]pyridin-2-yl)-amide], the IC50 by setting is: under setting [1], under 1000 nM; under setting [2], 100 to 1000 nM.

`CC(=O)Nc1cccc(-c2cccc3nc(NC(=O)C4CC4)nn23)c1` [WW-002, Cyclopropanecarboxylic acid [5-(3-acetylamino-phenyl)-[1,2,4]triazolo [1,5-a]pyridin-2-yl]-amide]: the half-maximal inhibitory concentration (IC50) is, setting by setting: under setting [1], 1000 to 10000 nM; under setting [2], 1000 to 10000 nM.

With `CN1CCN(c2ccc(-c3cccc4nc(NC(=O)C5CC5)nn34)cc2)CC1` [WW-003, Cyclopropanecarboxylic acid {5-[4-(4-methyl-piperazin-1-yl)-phenyl]-[1,2,4]triazolo [1,5-a]pyridin-2-yl}-amide], the concentration for half-maximal inhibition (IC50) reads like this: under setting [1], 1000 to 10000 nM; under setting [2], 1000 to 10000 nM.

On to `O=C(Nc1nc2cccc(-c3cccc(Cl)c3)n2n1)C1CC1` [WW-004, Cyclopropanecarboxylic acid [5-(3-chloro-phenyl)-[1,2,4]triazolo[1,5-a]pyridin-2-yl]-amide], for which the IC50 is, setting by setting: under setting [1], 1000 to 10000 nM; under setting [2], 1000 to 10000 nM.

Consider `COc1ccc(-c2cccc3nc(NC(=O)C4CC4)nn23)cc1` [WW-005, cyclopropanecarboxylic acid [5-(4-methoxy-phenyl)-[1,2,4]triazolo[1,5-a]pyridin-2-yl]-amide], for which the IC50 reads like this: under setting [1], under 1000 nM; under setting [2], 100 to 1000 nM.

On to `COc1ccc(-c2cccc3nc(NC(=O)C4CC4)nn23)cn1` [WW-006, Cyclopropanecarboxylic acid [5-(6-methoxy-pyridin-3-yl)-[1,2,4]triazolo[1,5-a]pyridin-2-yl]-amide], for which the half-maximal inhibitory concentration (IC50) was 1000 to 10000 nM under setting [1] and 1000 to 10000 nM under setting [2].

As for `O=C(Nc1nc2cccc(-c3cccc(F)c3)n2n1)C1CC1` [WW-007, Cyclopropanecarboxylic acid [5-(3-fIuoro-phenyl)-[1,2,4]triazolo[1,5-a]pyridin-2-yl]-amide], the IC50 was 1000 to 10000 nM under setting [1] and 1000 to 10000 nM under setting [2].

Consider `Cc1cc(-c2cccc3nc(NC(=O)C4CC4)nn23)cc(C)c1O` [WW-008, Cyclopropanecarboxylic acid [5-(4-hydroxy-3,5-dimethyl-phenyl)-[1,2,4]triazolo[1,5-a]pyridin-2-yl]-amide], for which the concentration for half-maximal inhibition (IC50) is, setting by setting: under setting [1], 1000 to 10000 nM; under setting [2], 1000 to 10000 nM.

With `CN(C)CCNC(=O)c1ccc(-c2cccc3nc(NC(=O)C4CC4)nn23)cc1` [WW-009, 4-[2-(Cyclopropanecarbonyl-amino)-[1,2,4]triazolo[1,5-a]pyridin-5-yl]-N-(2-dimethylamino-ethyl)-benzamide], the concentration for half-maximal inhibition (IC50) lay within 1000 to 10000 nM under setting [1] and 1000 to 10000 nM under setting [2].

Take `COc1ccc(-c2cccc3nc(NC(=O)C4CC4)nn23)c(OC)c1` [WW-010, Cyclopropanecarboxylic acid [5-(2,4-dimethoxy-phenyl)-[1,2,4]triazolo[1,5-a]pyridin-2-yl]-amide]: the IC50 under setting [1] fell in the range of 1000 to 10000 nM and the half-maximal inhibitory concentration (IC50) under setting [2] lay in the range of 1000 to 10000 nM.

With `CS(=O)(=O)Nc1cccc(-c2cccc3nc(NC(=O)C4CC4)nn23)c1` [WW-011, Cyclopropanecarboxylic acid [5-(3-methanesulfonylamino-phenyl)-[1,2,4]triazolo[1,5-a]pyridin-2-yl]-amide], the IC50 is 1000 to 10000 nM under setting [1] and 1000 to 10000 nM under setting [2].

Consider `O=C(Nc1nc2cccc(-c3ccc(F)cc3)n2n1)C1CC1` [WW-013], for which the IC50 reads like this: under setting [1], 1000 to 10000 nM; under setting [2], 1000 to 10000 nM.

In the case of `CS(=O)(=O)c1ccc(-c2cccc3nc(NC(=O)C4CC4)nn23)cc1` [WW-014], the IC50 is, setting by setting: under setting [1], 1000 to 10000 nM; under setting [2], 1000 to 10000 nM.

As to `NC(=O)c1cccc(-c2cccc3nc(NC(=O)C4CC4)nn23)c1` [WW-015], the IC50 is, setting by setting: under setting [1], 1000 to 10000 nM; under setting [2], 1000 to 10000 nM.

In the case of `COCc1ccc(-c2cccc3nc(NC(=O)C4CC4)nn23)cc1` [WW-016], the IC50 runs as follows: under setting [1], 1000 to 10000 nM; under setting [2], 1000 to 10000 nM.

As for `CS(=O)(=O)Nc1ccc(-c2cccc3nc(NC(=O)C4CC4)nn23)cc1` [WW-017], the half-maximal inhibitory concentration (IC50) reads like this: under setting [1], 1000 to 10000 nM; under setting [2], 1000 to 10000 nM.

For the molecule `O=C(Nc1nc2cccc(-c3ccc4[nH]ccc4c3)n2n1)C1CC1` [WW-018], the IC50 by setting is: under setting [1], under 1000 nM; under setting [2], 100 to 1000 nM.

For the molecule `NC(=O)c1ccc(-c2cccc3nc(NC(=O)C4CC4)nn23)cc1` [WW-019], the IC50 lay in the range of 1000 to 10000 nM under setting [1] and 1000 to 10000 nM under setting [2].

With `O=C(Nc1nc2cccc(-c3cccc(O)c3)n2n1)C1CC1` [WW-020], the IC50 is, setting by setting: under setting [1], 1000 to 10000 nM; under setting [2], 1000 to 10000 nM.

For `O=C(Nc1nc2cccc(-c3ccc(O)cc3)n2n1)C1CC1` [WW-022, cyclopropanecarboxylic acid [5-(4-hydroxy-phenyl)-[1,2,4]triazolo[1,5-a]pyridin-2-yl]-amide], the IC50 was under 1000 nM under setting [1] and 100 to 1000 nM under setting [2].

On to `O=C(Nc1nc2cccc(-c3ccc(Cl)cc3)n2n1)C1CC1` [WW-023], for which the IC50 lay in the range of 1000 to 10000 nM under setting [1] and 1000 to 10000 nM under setting [2].

Take `COc1cccc(-c2cccc3nc(NC(=O)C4CC4)nn23)c1` [WW-024]: the IC50 under setting [1] fell in the range of 1000 to 10000 nM and the IC50 under setting [2] fell in the range of 1000 to 10000 nM.

Take `O=C(Nc1nc2cccc(-c3ccccc3F)n2n1)C1CC1` [WW-025]: the concentration for half-maximal inhibition (IC50) is, setting by setting: under setting [1], 1000 to 10000 nM; under setting [2], 1000 to 10000 nM.

For `O=C(Nc1nc2cccc(-c3ccc(N4CCOCC4)cc3)n2n1)C1CC1` [WW-026], the IC50 under setting [1] was under 1000 nM and the IC50 under setting [2] fell in the range of 100 to 1000 nM.

For `O=C(Nc1nc2cccc(-c3ccc(CO)cc3)n2n1)C1CC1` [WW-027], the IC50 runs as follows: under setting [1], 1000 to 10000 nM; under setting [2], 1000 to 10000 nM.

Take `O=C(Nc1nc2cccc(-c3cccc(CO)c3)n2n1)C1CC1` [WW-028]: the IC50 is, setting by setting: under setting [1], 1000 to 10000 nM; under setting [2], 1000 to 10000 nM.

As for `CN(C)C(=O)c1ccc(-c2cccc3nc(NC(=O)C4CC4)nn23)cc1` [WW-029], the 50% inhibitory concentration (IC50) runs as follows: under setting [1], 1000 to 10000 nM; under setting [2], 1000 to 10000 nM.

For `O=C(Nc1nc2cccc(-c3ccnc(F)c3)n2n1)C1CC1` [WW-030], the IC50 is, setting by setting: under setting [1], 1000 to 10000 nM; under setting [2], 1000 to 10000 nM.

`O=C(Nc1nc2cccc(-c3ccc(C(F)(F)F)cc3)n2n1)C1CC1` [WW-031]: the IC50 was in the range of 1000 to 10000 nM under setting [1] and 1000 to 10000 nM under setting [2].

As for `O=C(Nc1nc2cccc(-c3cccc(C(F)(F)F)c3)n2n1)C1CC1` [WW-033], the IC50 is, setting by setting: under setting [1], 1000 to 10000 nM; under setting [2], 1000 to 10000 nM.

Take `Cc1cccc(-c2cccc3nc(NC(=O)C4CC4)nn23)c1` [WW-034]: the half-inhibitory concentration (IC50) by setting is: under setting [1], 1000 to 10000 nM; under setting [2], 1000 to 10000 nM.

On to `CCOc1ccc(-c2cccc3nc(NC(=O)C4CC4)nn23)cc1` [WW-035], for which the IC50 under setting [1] was under 1000 nM and the IC50 under setting [2] lay within 100 to 1000 nM.

Take `CN(C)c1ccc(-c2cccc3nc(NC(=O)C4CC4)nn23)cn1` [WW-036]: the 50% inhibitory concentration (IC50) was in the range of 1000 to 10000 nM under setting [1] and 1000 to 10000 nM under setting [2].

For `O=C(Nc1nc2cccc(-c3ccccc3O)n2n1)C1CC1` [WW-037], the half-inhibitory concentration (IC50) fell in the range of 1000 to 10000 nM under setting [1] and 1000 to 10000 nM under setting [2].
